Laboratory results as given in patent US20250262222A1, “HETEROCYCLIC COMPOUNDS, COMPOSITIONS THEREOF, AND METHODS OF TREATMENT THEREWITH” (BeiGene Switzerland GmbH, priority 2022, published 2025).

Tested on: pERK1/2(THR202/TYR204) level in AsPC-1 cell line
Experiment: KRAS G12D pERK assay
Type: cell-based
Conditions: AsPC-1 cells, 2 h compound treatment, HTRF
Protocol: AsPC-1 cell line was used in this study. Cells were maintained in RPMI-1640 supplemented with 10% fetal bovine serum (Thermo Fisher), 50 units/mL penicillin and streptomycin (Thermo Fisher) and kept at 37° C. in a humidified atmosphere of 5% CO2 in air. Cells were reinstated from frozen stocks that were laid down within 30 passages from the original cells purchased. 30000 cells per well were seeded into a 96-well plate and incubated overnight. Cells were treated with a 10-point dilution series. The final compound concentration is from 0 to 10 μM. After 2 h compound treatment, cells were lysed, and the pERK1/2(THR202/TYR204) level in the cell lysates was detected by HTRF kit (Cisbio). In brief, a total of 16 μL of cell lysate from each well of a 96-well plate was transferred to a 384-well white assay plate. Lysate from each well was incubated with 2 μL of Eu3+-cryptate (donor) labeled anti-phospho-ERK1/2 and 2 μL of D2 (acceptor) labeled anti-phospho-ERK1/2 antibodies (Cisbio) overnight in dark at room temperature. When donor and acceptor are in close proximity, excitation of the donor with laser triggers a Fluorescence Resonance Energy Transfer (FRET) towards the acceptor, which in turn fluoresces at 655 nm wavelength. FRET signals were measured using a PHERAstar FSX reader (BMG Labtech). IC50 determination was performed by fitting the curve of percent inhibition versus the log of the inhibitor concentration using Dotmatics.

Compound | IC50
Nc1cc(Cl)c(C(F)(F)F)c(-c2nc3c4c(nc(OC[C@@]56CCCN5C[C@H](F)C6)nc4c2F)N2C[C@H]4CC[C@H](N4)C2CCO3)c1 (single isomer, unassigned) [Example 25] | 504 nM
Nc1cc(Cl)c(C(F)(F)F)c(-c2nc3c4c(nc(OC[C@@]56CCCN5C[C@H](F)C6)nc4c2F)N2C[C@H]4CC[C@H](N4)C2CCO3)c1 (single isomer, unassigned) [Example 24] | 4.4 nM

Same assay, conditions: Homo sapiens, ASPC1, 2 h, AsPC-1 cells, 2 h compound treatment, HTRF

Compound | IC50
Nc1cc(Cl)c(C(F)(F)F)c(-c2nc3c4c(nc(OC[C@@]56CCCN5C[C@H](F)C6)nc4c2F)N2CC4CCC(N4)C2CO3)c1 (stereo partly drawn) [Example 10, 3-chloro-5-(1-fluoro-12-(((2R,7aS)-2-fluorotetrahydro-1H-pyrrolizin-7a(5H)-yl)methoxy)-5a,6,7,8,9,10-hexahydro-5H-4-oxa-3,10a,11,13,14-pentaaza-6,9-methanonaphtho[1,8-ab]heptalen-2-yl)-4-(trifluoromethyl)aniline] | 58 nM
CC12CCC(COc3nc4c5c(nc(-c6cc(N)cc(Cl)c6C(F)(F)F)c(F)c5n3)OCC[C@@H]3[C@@H]5CC[C@H](CN43)N5)(CO1)C2 [Example 36, 3-chloro-5-((6aR,7S,10R)-1-fluoro-13-((1-methyl-2-oxabicyclo[2.2.1]heptan-4-yl)methoxy)-5,6,6a,7,8,9,10,11-octahydro-4-oxa-3,11a,12,14,15-pentaaza-7,10-methanocyclohepta[4,5]cyclo-octa[1,2,3-de]naphthalen-2-yl)-4-(trifluoromethyl)aniline] | 106 nM
Nc1cc(Cl)c(C(F)(F)F)c(-c2nc3c4c(nc(OCC56CCC(COC5)C6)nc4c2F)N2C[C@H]4CC[C@H](N4)[C@H]2CCO3)c1 [Example 45, 3-((6aR,7S,10R)-13-((3-oxabicyclo[3.2.1]octan-1-yl)methoxy)-1-fluoro-5,6,6a,7,8,9,10,11-octahydro-4-oxa-3,11a,12,14,15-pentaaza-7,10-methanocyclohepta[4,5]cyclo-octa[1,2,3-de]naphthalen-2-yl)-5-chloro-4-(trifluoromethyl)aniline] | 221 nM
Nc1cc(Cl)c(C(F)(F)F)c(-c2nc3c4c(nc(OCC5(C(F)F)CCOC5)nc4c2F)N2C[C@H]4CC[C@H](N4)[C@H]2CCO3)c1 (stereo partly drawn) [Example 63, 3-chloro-5-((6aR,7S,10R)-13-((3-(difluoromethyl)tetrahydrofuran-3-yl)methoxy)-1-fluoro-5,6,6a,7,8,9,10,11-octahydro-4-oxa-3,11a,12,14,15-pentaaza-7,10-methanocyclohepta[4,5]cyclo-octa[1,2,3-de]naphthalen-2-yl)-4-(trifluoromethyl)aniline] | 151 nM
COCC1(COc2nc3c4c(nc(-c5cc(N)cc(Cl)c5C(F)(F)F)c(F)c4n2)OCC[C@@H]2[C@@H]4CC[C@H](CN32)N4)COC1 [Example 62, 3-chloro-5-((6aR,7S,10R)-1-fluoro-13-((3-(methoxymethyl)oxetan-3-yl)methoxy)-5,6,6a,7,8,9,10,11-octahydro-4-oxa-3,11a,12,14,15-pentaaza-7,10-methanocyclohepta[4,5]cyclo-octa[1,2,3-de]naphthalen-2-yl)-4-(trifluoromethyl)aniline] | 346 nM
Cc1cc(N)cc(-c2nc3c4c(nc(OCC56COC(CF)(C5)C6)nc4c2F)N2C[C@H]4CC[C@H](N4)[C@H]2CCO3)c1C(F)(F)F [Example 49, 3-((6aR,7S,10R)-1-fluoro-13-((1-(fluoromethyl)-2-oxabicyclo[2.1.1]hexan-4-yl)methoxy)-5,6,6a,7,8,9,10,11-octahydro-4-oxa-3,11a,12,14,15-pentaaza-7,10-methanocyclohepta[4,5]cyclo-octa[1,2,3-de]naphthalen-2-yl)-5-methyl-4-(trifluoromethyl)aniline] | 172 nM
Cc1cc(N)cc(-c2nc3c4c(nc(OCC56CCC(C)(C5)OC6)nc4c2F)N2C[C@H]4CC[C@H](N4)[C@H]2CCO3)c1C(F)(F)F [Example 51, 3-((6aR,7S,10R)-1-fluoro-13-((1-methyl-2-oxabicyclo[2.2.1]heptan-4-yl)methoxy)-5,6,6a,7,8,9,10,11-octahydro-4-oxa-3,11a,12,14,15-pentaaza-7,10-methanocyclohepta[4,5]cyclo-octa[1,2,3-de]naphthalen-2-yl)-5-methyl-4-(trifluoromethyl)aniline] | 272 nM
Cc1c(F)c(N)cc(-c2nc3c4c(nc(OCC5(C(F)F)COC5)nc4c2F)N2C[C@H]4CC[C@H](N4)[C@H]2CCO3)c1C(F)(F)F [Example 31, 5-((6aR,7S,10R)-13-((3-(difluoromethyl)oxetan-3-yl)methoxy)-1-fluoro-5,6,6a,7,8,9,10,11-octahydro-4-oxa-3,11a,12,14,15-pentaaza-7,10-methanocyclohepta[4,5]cyclo-octa[1,2,3-de]naphthalen-2-yl)-2-fluoro-3-methyl-4-(trifluoromethyl)aniline] | 162 nM
C#Cc1c(F)ccc2cc(O)cc(-c3nc4c5c(nc(OC[C@@]67CCCN6C[C@H](F)C7)nc5c3F)N3CC5CCC(N5)C3CO4)c12 (stereo partly drawn) [Example 11, 5-ethynyl-6-fluoro-4-(1-fluoro-12-(((2R,7aS)-2-fluorotetrahydro-1H-pyrrolizin-7a(5H)-yl)methoxy)-5a,6,7,8,9,10-hexahydro-5H-4-oxa-3,10a,11,13,14-pentaaza-6,9-methanonaphtho[1,8-ab]heptalen-2-yl)naphthalen-2-ol] | 30 nM
COC(=O)N1CC(C)(COc2nc3c4c(nc(-c5cc(N)cc(C)c5C(F)(F)F)c(F)c4n2)OCC[C@@H]2[C@@H]4CC[C@H](CN32)N4)C1 [Example 43, methyl 3-((((6aR,7S,10R)-2-(5-amino-3-methyl-2-(trifluoromethyl)phenyl)-1-fluoro-5,6,6a,7,8,9,10,11-octahydro-4-oxa-3,11a,12,14,15-pentaaza-7,10-methanocyclohepta[4,5]cyclo-octa[1,2,3-de]naphthalen-13-yl)oxy)methyl)-3-methylazetidine-1-carboxylate] | 584 nM
Cc1nc(N)cc(-c2nc3c4c(nc(OCC56COC(C5)C6)nc4c2F)N2CC4CCC(N4)[C@H]2CCO3)c1C(F)(F)F (stereo in doubt) [Example 42, 4-((6aR,7R,10S)-13-((2-oxabicyclo[2.1.1]hexan-4-yl)methoxy)-1-fluoro-5,6,6a,7,8,9,10,11-octahydro-4-oxa-3,11a,12,14,15-pentaaza-7,10-methanocyclohepta[4,5]cyclo-octa[1,2,3-de]naphthalen-2-yl)-6-methyl-5-(trifluoromethyl)pyridin-2-amine] | 1850 nM
Oc1cc(Cl)c(C2CC2)c(-c2nc3c4c(nc(OCC56COC(C5)C6)nc4c2F)N2C[C@H]4CC[C@H](N4)[C@H]2CCO3)c1 [Example 38, 3-((6aR,7S,10R)-13-((2-oxabicyclo[2.1.1]hexan-4-yl)methoxy)-1-fluoro-5,6,6a,7,8,9,10,11-octahydro-4-oxa-3,11a,12,14,15-pentaaza-7,10-methanocyclohepta[4,5]cyclo-octa[1,2,3-de]naphthalen-2-yl)-5-chloro-4-cyclopropylphenol] | 1870 nM
COCC12CC(COc3nc4c5c(nc(-c6cc(N)cc(Cl)c6C(F)(F)F)c(F)c5n3)OCC[C@@H]3[C@@H]5CC[C@H](CN43)N5)(CO1)C2 [Example 39, 3-chloro-5-((6aR,7S,10R)-1-fluoro-13-((1-(methoxymethyl)-2-oxabicyclo[2.1.1]hexan-4-yl)methoxy)-5,6,6a,7,8,9,10,11-octahydro-4-oxa-3,11a,12,14,15-pentaaza-7,10-methanocyclohepta[4,5]cyclo-octa[1,2,3-de]naphthalen-2-yl)-4-(trifluoromethyl)aniline] | 409 nM
